# Source: patent publication US8598357B2, “Benzodioxole piperidine compounds” (Hoffmann-La Roche Inc., priority 2011, dated 2013)
# What was measured:
# [1] = biological target: D2 receptor (Homo sapiens (Human), UniProt P14416); experiment: Radioligand binding assay ([3H]-spiperone) on membranes of HEK293 EBNA cells expressing human D2 receptor; details: human receptor in HEK293 EBNA cells; 0.7 nM [3H]-spiperone
# Method: (§1) HEK293 EBNA cells were transiently transfected with expression plasmids encoding for the human D2 or D3 or for the human 5-HT2A receptor, respectively. The cells were harvested 48 h post-transfection, washed three times with cold PBS and stored at −80° C. prior to use. The pellet was suspended in cold 50 mM Tris-HCl buffer containing 10 mM EDTA (pH 7.4) and was homogenized with a Polytron (Kinematica AG, Basel, Switzerland) for 20-30 sec at 12.000 rpm. After centrifugation at 48.000×g for 30 min at 4° C., the pellet was resuspended in cold 10 mM Tris-HCl buffer containing 0.1 mM EDTA (pH 7.4), homogenized, and centrifuged as above. This pellet was further resuspended in a smaller volume of ice cold 10 mM Tris-HCl buffer containing 0.1 mM EDTA (pH 7.4) and homogenized with a Polytron for 20-30 sec at 12.000 rpm. The protein content of this homogenate was determined with the Bio-Rad (Bradford) Protein Assay (Biorad Laboratories GmbH, München, Germany) according to the instructions of the manufacturer using gamma globulin as the standard. This homogenate was stored at −80° C. in aliquots and thawed immediately prior to use.
# (§2) Aliquots of membrane preparations were thawed at RT, resuspended in assay buffer (D2, D3: 50 mM Tris-HCl, 120 mM NaCl, 5 mM MgCl2, 1 mM EDTA, 5 mM KCl, 1.5 mM CaCl2, pH=7.4; 5-HT2A: 50 mM Tris-HCl, 10 mM MgCl2, 1 mM EGTA, pH=7.4), homogenized with a Polytron for 20-30 sec at 12.000 rpm and adjusted to a final concentration of approximately 7.5 μg protein/well (D2, D3) and 15 μg protein/well (5-HT2A), respectively.
# (§3) The nonspecific binding was determined with equally composed reaction mixtures in the presence of 10 μM unlabelled spiperone. Per well 45 μl of Microscint 40 (Perkin Elmer, Schwerzenbach, Switzerland) was added, plates for sealed, shaken for 20 min and counted for 3 min on a Topcount Microplate Scintillation Counter (Can berra Packard SA, Ziirich, Switzerland) with quenching correction.
# (§4) The CPM value for each duplicate of a concentration of competing compound was averaged (y1), then the % specific binding was calculated according to the equation (((y1−non-specific)/(total binding−non-specific))×100). Graphs were plotted with the % specific binding using XLfit, a curve fitting program that iteratively plots the data using Levenberg-Marquardt algorithm. The single site competition analysis equation used was y=A+((B−A)/(1+((x/C)D))), where y is the % specific binding, A is the minimum y, B is the maximum y, C is the IC50, x is the log 10 of the concentration of the competing compound and D is the slope of the curve (the Hill Coefficient). […] The affinity constant (K) was calculated using the Cheng-Prusoff equation Ki=(IC50/1+([L]/Kd), where [L] is the concentration of radioligand and Kd is the dissociation constant of the radioligand at the receptor as determined by the saturation isotherm.
# [2] = biological target: D3 receptor (Homo sapiens (Human), UniProt P35462); experiment: Radioligand binding assay ([3H]-spiperone) on membranes of HEK293 EBNA cells expressing human D3 receptor; details: read-out: D3 Ki; human receptor in HEK293 EBNA cells; 0.5 nM [3H]-spiperone
# Method: as §1, §2, §3, §4
# [3] = biological target: 5-HT2A receptor (Homo sapiens (Human), UniProt P28223); experiment: Radioligand binding assay ([3H]-ketanserin) on membranes of HEK293 EBNA cells expressing human 5-HT2A receptor; details: read-out: 5HT2A Ki
# Method: as §1, §2, §3, §4
# Chain of D2 receptor (P14416 whole entry): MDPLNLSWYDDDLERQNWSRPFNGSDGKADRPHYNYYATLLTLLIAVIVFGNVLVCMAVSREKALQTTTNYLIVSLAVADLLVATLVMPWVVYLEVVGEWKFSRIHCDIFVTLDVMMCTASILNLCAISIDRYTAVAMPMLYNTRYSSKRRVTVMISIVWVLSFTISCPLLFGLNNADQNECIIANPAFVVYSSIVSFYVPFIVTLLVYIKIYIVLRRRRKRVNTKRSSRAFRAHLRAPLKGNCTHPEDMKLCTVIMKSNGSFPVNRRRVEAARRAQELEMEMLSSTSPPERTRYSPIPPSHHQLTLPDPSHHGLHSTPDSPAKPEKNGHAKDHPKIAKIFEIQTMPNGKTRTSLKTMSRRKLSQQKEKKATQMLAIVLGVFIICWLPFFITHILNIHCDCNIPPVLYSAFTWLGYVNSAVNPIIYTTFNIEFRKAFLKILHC
# Chain of D3 receptor (P35462 whole entry): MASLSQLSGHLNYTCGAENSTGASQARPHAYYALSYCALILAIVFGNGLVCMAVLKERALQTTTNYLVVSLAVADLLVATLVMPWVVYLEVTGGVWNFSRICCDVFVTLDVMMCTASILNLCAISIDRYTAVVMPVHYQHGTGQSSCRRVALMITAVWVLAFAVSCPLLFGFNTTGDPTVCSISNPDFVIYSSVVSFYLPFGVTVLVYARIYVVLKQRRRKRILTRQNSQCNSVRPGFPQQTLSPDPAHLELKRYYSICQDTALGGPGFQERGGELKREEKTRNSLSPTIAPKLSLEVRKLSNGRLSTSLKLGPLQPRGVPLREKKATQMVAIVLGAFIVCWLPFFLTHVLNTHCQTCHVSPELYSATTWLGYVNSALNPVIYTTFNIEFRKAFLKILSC
compound,measurement,setting,value
"O=S(=O)(N[C@H]1CC[C@H](CCN2CCC(c3cccc4c3OCO4)CC2)CC1)N1CCOCC1 [Example 79, Morpholine-4-sulfonic acid-Trans-N-{4-[2-(4-benzo[1,3]dioxol-4-yl-piperidin-1-yl)-ethyl]-cyclohexyl}-amide]",Ki,[1],229 nM
same,Ki,[2],6.11 nM
same,Ki,[3],56.1 nM
